# According to the Kinase Knowledgebase extract (Sharma et al. 2016):
# Columns and labels:
# [1] = biological target: EGFR (human) (UniProt P00533)
# [2] = biological target: EGFR (human) (UniProt P00533); conditions: a431
# EGFR (human), sequence (P00533 whole entry, looked up): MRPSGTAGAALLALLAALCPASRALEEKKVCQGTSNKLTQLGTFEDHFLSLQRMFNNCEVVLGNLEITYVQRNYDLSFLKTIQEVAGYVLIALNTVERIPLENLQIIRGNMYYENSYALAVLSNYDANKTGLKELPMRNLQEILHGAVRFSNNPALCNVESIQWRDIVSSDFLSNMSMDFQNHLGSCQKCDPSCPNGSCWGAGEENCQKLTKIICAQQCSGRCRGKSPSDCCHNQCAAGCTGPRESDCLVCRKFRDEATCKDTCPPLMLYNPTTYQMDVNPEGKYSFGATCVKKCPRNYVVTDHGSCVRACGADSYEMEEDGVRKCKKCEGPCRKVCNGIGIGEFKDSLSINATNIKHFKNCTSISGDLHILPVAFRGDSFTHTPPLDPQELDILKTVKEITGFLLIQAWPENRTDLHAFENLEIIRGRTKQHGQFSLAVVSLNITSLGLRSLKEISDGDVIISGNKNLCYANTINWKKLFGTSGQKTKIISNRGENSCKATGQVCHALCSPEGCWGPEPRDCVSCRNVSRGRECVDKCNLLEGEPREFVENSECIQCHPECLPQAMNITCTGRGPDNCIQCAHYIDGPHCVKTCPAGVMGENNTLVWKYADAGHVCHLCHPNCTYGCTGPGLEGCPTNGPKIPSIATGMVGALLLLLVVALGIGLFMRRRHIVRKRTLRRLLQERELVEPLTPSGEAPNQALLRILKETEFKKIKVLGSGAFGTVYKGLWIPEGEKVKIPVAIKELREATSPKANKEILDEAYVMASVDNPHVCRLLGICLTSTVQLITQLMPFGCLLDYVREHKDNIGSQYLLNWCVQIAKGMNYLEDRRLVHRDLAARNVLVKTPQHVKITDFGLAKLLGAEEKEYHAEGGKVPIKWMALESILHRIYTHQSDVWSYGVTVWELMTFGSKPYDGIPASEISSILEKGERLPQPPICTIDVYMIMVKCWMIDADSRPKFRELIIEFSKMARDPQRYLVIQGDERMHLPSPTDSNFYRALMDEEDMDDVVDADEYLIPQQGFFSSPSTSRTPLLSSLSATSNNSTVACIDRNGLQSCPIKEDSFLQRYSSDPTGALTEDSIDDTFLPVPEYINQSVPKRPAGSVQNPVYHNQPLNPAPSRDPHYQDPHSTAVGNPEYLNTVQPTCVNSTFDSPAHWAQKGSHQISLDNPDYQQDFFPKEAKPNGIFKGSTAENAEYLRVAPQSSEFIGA
IC50 [1],IC50 [2],Structure (SMILES)
0.049 µM,,OC1CCC(NCC(O)Cn2ccc(-c3ccc4ncnc(Nc5ccc(OCc6cccc(F)c6)c(Cl)c5)c4c3)c2)CC1 (centres undefined)
0.095 µM,,O=C(c1cn(-c2ccc3ncnc(Nc4ccc(OCc5ccccn5)c(Cl)c4)c3c2)cc1CCO)N1CCCCC1
0.115 µM,,O=C(NCCCN1CCOCC1)c1cn(-c2ccc3ncnc(Nc4ccc5c(cnn5Cc5ccc(F)cc5)c4)c3c2)cc1CCO
0.066 µM,,O=C(Cn1ccc(-c2ccc3ncnc(Nc4ccc(OCc5cccc(F)c5)c(Cl)c4)c3c2)c1)N1CCCCC1
0.015 µM,,CN(C)Cc1cn(-c2ccc3ncnc(Nc4ccc5c(cnn5Cc5cccc(F)c5)c4)c3c2)cc1CCO
0.025 µM,,O=C(c1cn(-c2ccc3ncnc(Nc4ccc(OCc5cccc(F)c5)c(Cl)c4)c3c2)cc1CCN1CCOCC1)N1CCOCC1
,0.415 µM,O[C@@H](CN1CCC(N2CCCCC2)CC1)Cn1ccc(-c2ccc3ncnc(Nc4ccc(OCc5cccc(F)c5)c(Cl)c4)c3c2)c1
,0.462 µM,COC[C@H](O)Cn1ccc(-c2ccc3ncnc(Nc4ccc(OCc5cccc(F)c5)c(Cl)c4)c3c2)c1
,0.13 µM,CC(Nc1ncnc2ccc(-n3cc(CCO)c(CN4CCCC4)c3)cc12)c1ccccc1 (centres undefined)
,0.708 µM,O[C@@H](CNC1CC1)Cn1ccc(-c2ccc3ncnc(Nc4ccc(OCc5cccc(F)c5)c(Cl)c4)c3c2)c1
0.028 µM,,CC(C)(C)OC(=O)n1cccc1-c1ccc2ncnc(Nc3ccc(OCc4cccc(F)c4)c(Cl)c3)c2c1
,0.56 µM,O=C(NCCCN1CCOCC1)c1cn(-c2ccc3ncnc(Nc4ccc(F)c(Cl)c4)c3c2)cc1CCO
,0.481 µM,O=C(Cn1ccc(-c2ccc3ncnc(Nc4ccc(OCc5cccc(F)c5)c(Cl)c4)c3c2)c1)N1CCCC1
0.031 µM,,CCOC(=O)c1cn(-c2ccc3ncnc(Nc4ccc(OCc5cccc(F)c5)c(Cl)c4)c3c2)cc1C(F)(F)F
0.047 µM,,Fc1ccc(Nc2ncnc3ccc(-c4cc[nH]c4)cc23)cc1Cl
0.062 µM,,CN1CCN(C(=O)c2cn(-c3ccc4ncnc(Nc5ccc6c(cnn6Cc6ccc(F)cc6)c5)c4c3)cc2CCO)CC1
0.021 µM,,CCN(CC)Cc1cn(-c2ccc3ncnc(Nc4ccc(OCc5ccccn5)c(Cl)c4)c3c2)cc1CCO
0.14 µM,,CCN(CC)C(=O)Cn1ccc(-c2ccc3ncnc(Nc4ccc(OCc5cccc(F)c5)c(Cl)c4)c3c2)c1
0.024 µM,,CS(=O)(=O)CCNC(=O)c1cc(-c2ccc3ncnc(Nc4ccc(OCc5cccc(F)c5)c(Cl)c4)c3c2)c[nH]1
0.053 µM,,CCN(CC)CCNCc1cn(-c2ccc3ncnc(Nc4ccc(OCc5cccc(F)c5)c(Cl)c4)c3c2)cc1C(F)(F)F
0.091 µM,,O[C@@H](CNCc1cn(-c2ccc3ncnc(Nc4ccc(OCc5cccc(F)c5)c(Cl)c4)c3c2)cc1C(F)(F)F)CN1CCOCC1
0.005 µM,,C=C(C)C(=O)Nc1cn(-c2ccc3ncnc(Nc4ccc(OCc5cccc(F)c5)c(Cl)c4)c3c2)cc1C(F)(F)F
0.012 µM,,O=S1(=O)CCC(CNCc2cn(-c3ccc4ncnc(Nc5ccc6c(cnn6Cc6cccc(F)c6)c5)c4c3)cc2CCO)CC1
0.072 µM,,CCN(CC)CCON=C1CCc2cn(-c3ccc4ncnc(Nc5ccc(OCc6cccc(F)c6)c(Cl)c5)c4c3)cc21
0.002 µM,,Fc1cccc(COc2ccc(Nc3ncnc4ccc(-c5ccn(CCN6CCNCC6)c5)cc34)cc2Cl)c1
0.016 µM,,O=C(NCCN1CCCC1)c1cn(-c2ccc3ncnc(Nc4ccc5c(cnn5Cc5ccc(F)cc5)c4)c3c2)cc1CCO
0.019 µM,,O=S1(=O)CCC(O)(CNCc2cn(-c3ccc4ncnc(Nc5ccc(OCc6cccc(F)c6)c(Cl)c5)c4c3)cc2CCO)CC1

IC50 [1],IC50 [2],Structure (SMILES)
0.011 µM,,COCCNCC(O)Cn1ccc(-c2ccc3ncnc(Nc4ccc(OCc5cccc(F)c5)c(Cl)c4)c3c2)c1 (centres undefined)
0.102 µM,,Fc1cccc(COc2ccc(Nc3ncnc4ccc(-c5c[nH]c(CNCCN6CCOCC6)c5)cc34)cc2Cl)c1
0.034 µM,,O=C(Cn1ccc(-c2ccc3ncnc(Nc4ccc(OCc5cccc(F)c5)c(Cl)c4)c3c2)c1)NC1CCNCC1
0.06 µM,,OCC1CCCN1CCn1ccc(-c2ccc3ncnc(Nc4ccc(OCc5cccc(F)c5)c(Cl)c4)c3c2)c1 (centres undefined)
0.057 µM,,CN(C)CCc1cn(-c2ccc3ncnc(Nc4ccc(OCc5cccc(F)c5)c(Cl)c4)c3c2)cc1C(=O)N1CCOCC1
0.039 µM,,CN(C)Cc1cn(-c2ccc3ncnc(Nc4ccc(OCc5cccc(F)c5)c(Cl)c4)c3c2)cc1CCO
0.031 µM,,COCCNCc1cc(-c2ccc3ncnc(Nc4ccc(OCc5cccc(F)c5)c(Cl)c4)c3c2)c[nH]1
0.008 µM,,O=C(NCCN1CCCCC1)c1cn(-c2ccc3ncnc(Nc4ccc(OCc5cccc(F)c5)c(Cl)c4)c3c2)cc1CCO
0.092 µM,,OC(CNCCN1CCCCC1)Cn1ccc(-c2ccc3ncnc(Nc4ccc(OCc5cccc(F)c5)c(Cl)c4)c3c2)c1 (centres undefined)
0.016 µM,,CS(=O)(=O)CCNCc1cn(-c2ccc3ncnc(Nc4ccc(OCc5ccccn5)c(Cl)c4)c3c2)cc1CCO
0.276 µM,,CN(C)CC=CC(=O)Nc1cn(-c2ccc3ncnc(Nc4ccc(OCc5cccc(F)c5)c(Cl)c4)c3c2)cc1C(F)(F)F
0.013 µM,,O=C(Cn1ccc(-c2ccc3ncnc(Nc4ccc(OCc5cccc(F)c5)c(Cl)c4)c3c2)c1)NC1CC1
0.023 µM,,O=C(NCCN1CCCCC1)c1cn(-c2ccc3ncnc(Nc4ccc5c(cnn5Cc5ccc(F)cc5)c4)c3c2)cc1CCO
0.376 µM,,Fc1cccc(COc2ccc(Nc3ncnc4ccc(-n5cc(CN6CCOCC6)c(CN6CCOCC6)c5)cc34)cc2Cl)c1
0.05 µM,,O=C(c1cn(-c2ccc3ncnc(Nc4ccc5c(cnn5Cc5ccc(F)cc5)c4)c3c2)cc1CCO)N1CCOCC1
0.127 µM,,CCN(CC)Cc1cn(-c2ccc3ncnc(Nc4ccc(OCc5cccc(F)c5)c(Cl)c4)c3c2)cc1CN(CC)CC
0.096 µM,,O=C(NCCCN1CCOCC1)c1cn(-c2ccc3ncnc(Nc4ccc(OCc5ccccn5)c(Cl)c4)c3c2)cc1CCO
0.042 µM,,CN1CCN(Cc2cn(-c3ccc4ncnc(Nc5ccc(OCc6cccc(F)c6)c(Cl)c5)c4c3)cc2CCO)CC1
0.042 µM,,O=S1(=O)CCC(CNCC(O)Cn2ccc(-c3ccc4ncnc(Nc5ccc(OCc6cccc(F)c6)c(Cl)c5)c4c3)c2)CC1 (centres undefined)
0.01 µM,,Fc1cccc(COc2ccc(Nc3ncnc4ccc(-n5cc(CNCCN6CCCCC6)c(C(F)(F)F)c5)cc34)cc2Cl)c1
0.012 µM,,OC(CN1CCOCC1)Cn1ccc(-c2ccc3ncnc(Nc4ccc(OCc5cccc(F)c5)c(Cl)c4)c3c2)c1 (centres undefined)
0.03 µM,,O=C(c1cn(-c2ccc3ncnc(Nc4ccc(OCc5ccccn5)c(Cl)c4)c3c2)cc1CCO)N1CCCC1
0.291 µM,,Fc1cccc(COc2ccc(Nc3ncnc4ccc(-n5cc(CN6CCCCC6)c(CN6CCCCC6)c5)cc34)cc2Cl)c1
0.037 µM,,CCN(CC)Cc1cn(-c2ccc3ncnc(Nc4ccc(OCc5cccc(F)c5)c(Cl)c4)c3c2)cc1CCO
0.131 µM,,Fc1cccc(COc2ccc(Nc3ncnc4ccc(-c5ccn(CCOC6CCCCO6)c5)cc34)cc2Cl)c1 (centres undefined)
0.016 µM,,O=S1(=O)CCC(O)(CNCc2cn(-c3ccc4ncnc(Nc5ccc(OCc6cccc(F)c6)c(Cl)c5)c4c3)cc2C(F)(F)F)CC1
0.024 µM,,O=S1(=O)CCC(CNCc2cn(-c3ccc4ncnc(Nc5ccc(OCc6cccc(F)c6)c(Cl)c5)c4c3)cc2CCO)CC1

IC50 [1],IC50 [2],Structure (SMILES)
0.197 µM,,Fc1cccc(COc2ccc(Nc3ncnc4ccc(-c5c[nH]c(CNCCCN6CCOCC6)c5)cc34)cc2Cl)c1
0.072 µM,,COCCc1cn(-c2ccc3ncnc(Nc4ccc(OCc5cccc(F)c5)c(Cl)c4)c3c2)cc1C(=O)N1CCOCC1
0.076 µM,,O=S1(=O)CCC(O)(CNCc2cn(-c3ccc4ncnc(Nc5ccc(F)c(Cl)c5)c4c3)cc2CCO)CC1
0.025 µM,,CS(=O)(=O)CCNCc1cn(-c2ccc3ncnc(Nc4ccc5c(cnn5Cc5cccc(F)c5)c4)c3c2)cc1CCO
0.156 µM,,CCN(CC)CCNC(=O)c1cn(-c2ccc3ncnc(Nc4ccc5c(cnn5Cc5ccc(F)cc5)c4)c3c2)cc1CCO
0.03 µM,,OC(CN1CCNCC1)Cn1ccc(-c2ccc3ncnc(Nc4ccc(OCc5cccc(F)c5)c(Cl)c4)c3c2)c1 (centres undefined)
0.04 µM,,Fc1cccc(COc2ccc(Nc3ncnc4ccc(-c5ccn(CCN6CCOCC6)c5)cc34)cc2Cl)c1
0.002 µM,,O=C1CCc2cn(-c3ccc4ncnc(Nc5ccc(OCc6cccc(F)c6)c(Cl)c5)c4c3)cc21
0.127 µM,,O=S1(=O)CCC(CNCc2cn(-c3ccc4ncnc(Nc5ccc(F)c(Cl)c5)c4c3)cc2CCO)CC1
0.638 µM,,Fc1cccc(COc2ccc(Nc3ncnc4ccc(-c5ccn(C[C@H]6CCNC6)c5)cc34)cc2Cl)c1
0.014 µM,,CS(=O)(=O)n1ccc(-c2ccc3ncnc(Nc4ccc(OCc5cccc(F)c5)c(Cl)c4)c3c2)c1
0.065 µM,,CS(=O)(=O)CCNCc1cn(-c2ccc3ncnc(Nc4ccc(F)c(Cl)c4)c3c2)cc1CCO
0.011 µM,,CS(=O)(=O)CCNCc1cn(-c2ccc3ncnc(Nc4ccc(OCc5cccc(F)c5)c(Cl)c4)c3c2)cc1CCO
0.012 µM,,OC1(Cn2ccc(-c3ccc4ncnc(Nc5ccc(OCc6cccc(F)c6)c(Cl)c5)c4c3)c2)CCNCC1
0.071 µM,,OCCc1cn(-c2ccc3ncnc(Nc4ccc(OCc5cccc(F)c5)c(Cl)c4)c3c2)cc1CNCCN1CCOCC1
0.105 µM,,O=C(c1cn(-c2ccc3ncnc(Nc4ccc(OCc5ccccn5)c(Cl)c4)c3c2)cc1CCO)N1CCC(N2CCCCC2)CC1
0.022 µM,,OCCc1cn(-c2ccc3ncnc(Nc4ccc(OCc5ccccn5)c(Cl)c4)c3c2)cc1CN1CCOCC1
0.004 µM,,CS(=O)(=O)CCNCc1cc(-c2ccc3ncnc(Nc4ccc5c(cnn5Cc5cccc(F)c5)c4)c3c2)c[nH]1
0.032 µM,,Fc1cccc(COc2ccc(Nc3ncnc4ccc(-n5cc(CNCCN6CCOCC6)c(C(F)(F)F)c5)cc34)cc2Cl)c1
0.056 µM,,CN(C)Cc1cn(-c2ccc3ncnc(Nc4ccc(OCc5cccc(F)c5)c(Cl)c4)c3c2)cc1CN(C)C
0.003 µM,,Fc1cccc(Cn2ncc3cc(Nc4ncnc5ccc(-c6cc[nH]c6)cc45)ccc32)c1
0.017 µM,,CS(=O)(=O)CCNCC(O)Cn1ccc(-c2ccc3ncnc(Nc4ccc(OCc5cccc(F)c5)c(Cl)c4)c3c2)c1 (centres undefined)
0.015 µM,,CCN(CC)CCc1cn(-c2ccc3ncnc(Nc4ccc(OCc5cccc(F)c5)c(Cl)c4)c3c2)cc1C(=O)N1CCOCC1
0.066 µM,,Fc1cccc(COc2ccc(Nc3ncnc4ccc(-c5c[nH]c(CN6CCC(N7CCCCC7)CC6)c5)cc34)cc2Cl)c1
0.47 µM,,CC(C)(C)OC(=O)N1CCC(NCc2cc(-c3ccc4ncnc(Nc5ccc(OCc6cccc(F)c6)c(Cl)c5)c4c3)c[nH]2)CC1
